Consider one compound from PMC5357904, “Vertebrate Cryptochromes are Vestigial Flavoproteins” (Scientific Reports, 2017).

What all share (format): binding
For experiment [1], the target named is T1, DmCRY (Drosophila melanogaster, UniProt O77059, R237E/R298E).
T1 construct: gene cry
The experiment can be described thus: UV-visible absorption of purified protein ([…] nm), FAD occupancy. The settings on record: co-purified FAD.

Experiment [2] addresses T2, DmCRY (Drosophila melanogaster, UniProt O77059, R298E/Q311E).
T2 construct: gene cry
The description is as above. The settings on record: co-purified FAD.

Experiment [3] deals with T3, SbCRY1a (Sylvia borin, UniProt Q6ZZY0).
T3 construct: gene CRY1; full length 1-620, 36-aa N-terminal 6xHis extension (pRSET-A), E. coli SoluBL21, apo-protein
T3 sequence (Q6ZZY0 1-620): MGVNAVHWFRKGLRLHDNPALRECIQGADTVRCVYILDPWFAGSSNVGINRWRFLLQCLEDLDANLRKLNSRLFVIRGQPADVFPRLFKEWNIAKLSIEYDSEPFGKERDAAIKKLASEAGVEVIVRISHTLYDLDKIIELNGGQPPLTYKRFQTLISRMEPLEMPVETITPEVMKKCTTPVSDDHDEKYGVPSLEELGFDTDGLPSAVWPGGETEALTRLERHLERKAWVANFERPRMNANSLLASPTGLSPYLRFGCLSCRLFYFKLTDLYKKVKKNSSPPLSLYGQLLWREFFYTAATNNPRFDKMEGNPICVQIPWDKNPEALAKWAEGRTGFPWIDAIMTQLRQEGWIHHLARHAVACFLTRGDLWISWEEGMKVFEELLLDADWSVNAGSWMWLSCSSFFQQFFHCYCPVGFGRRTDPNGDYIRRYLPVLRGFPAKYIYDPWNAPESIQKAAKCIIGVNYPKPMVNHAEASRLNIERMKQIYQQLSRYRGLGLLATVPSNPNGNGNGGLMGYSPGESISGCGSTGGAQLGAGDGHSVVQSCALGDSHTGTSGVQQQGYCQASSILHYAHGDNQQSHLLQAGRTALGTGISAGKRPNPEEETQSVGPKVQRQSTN
Nature of the experiment: UV-visible absorption titration of apo-protein into constant FAD, global fit.

In experiment [4] the target is T4, DmCRY (Drosophila melanogaster, UniProt O77059, Q311E).
T4 construct: gene cry
Nature of the experiment: UV-visible absorption of purified protein ([…] nm), FAD occupancy. To be noted: co-purified FAD.

Experiment [5] deals with T5, HsCRY2 (Homo sapiens, UniProt Q49AN0).
T5 construct: gene CRY2; full length 1-593, 39-aa N-terminal 6xHis extension (pRSET-A), E. coli SoluBL21, apo-protein
T5 sequence (Q49AN0 1-593): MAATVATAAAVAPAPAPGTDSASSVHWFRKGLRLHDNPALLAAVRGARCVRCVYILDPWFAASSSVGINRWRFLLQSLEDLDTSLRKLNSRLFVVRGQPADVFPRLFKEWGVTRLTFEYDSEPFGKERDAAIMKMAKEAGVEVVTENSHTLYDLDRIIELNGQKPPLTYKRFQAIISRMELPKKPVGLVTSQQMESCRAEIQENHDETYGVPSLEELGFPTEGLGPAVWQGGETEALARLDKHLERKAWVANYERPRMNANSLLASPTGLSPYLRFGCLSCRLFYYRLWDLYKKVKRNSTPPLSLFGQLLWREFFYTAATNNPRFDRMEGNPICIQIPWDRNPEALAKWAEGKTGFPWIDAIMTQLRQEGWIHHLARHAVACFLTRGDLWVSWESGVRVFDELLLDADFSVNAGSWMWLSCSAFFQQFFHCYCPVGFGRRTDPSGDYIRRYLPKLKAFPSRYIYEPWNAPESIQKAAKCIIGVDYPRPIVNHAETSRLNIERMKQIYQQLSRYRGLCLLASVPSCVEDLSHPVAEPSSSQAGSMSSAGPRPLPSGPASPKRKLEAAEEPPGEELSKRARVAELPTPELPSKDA
Nature of the experiment: UV-visible absorption titration of apo-protein into constant FAD, global fit.

The target in experiment [6] is T6, DmCRY (Drosophila melanogaster, UniProt O77059, R237E).
T6 construct: gene cry
Nature of the experiment: UV-visible absorption of purified protein ([…] nm), FAD occupancy. The settings on record: co-purified FAD.

Experiment [7] addresses T7, HsCRY2 (Homo sapiens, UniProt Q49AN0, H243R/S415N).
T7 construct: gene CRY2; full length 1-593, 39-aa N-terminal 6xHis extension (pRSET-A), E. coli SoluBL21, apo-protein
T7 sequence (Q49AN0 1-593 H243R/S415N): T5 sequence (Q49AN0 1-593) with H243R, S415N
Nature of the experiment: UV-visible absorption after incubation in excess FAD and spin filtration. The settings on record: occupancy after incubation in excess FAD and removal of free FAD.

Experiment [8] deals with T8, HsCRY1 (Homo sapiens, UniProt Q16526).
T8 construct: gene CRY1; full length 1-586, 39-aa N-terminal 6xHis extension (pRSET-A), E. coli SoluBL21, apo-protein
T8 sequence (Q16526 1-586): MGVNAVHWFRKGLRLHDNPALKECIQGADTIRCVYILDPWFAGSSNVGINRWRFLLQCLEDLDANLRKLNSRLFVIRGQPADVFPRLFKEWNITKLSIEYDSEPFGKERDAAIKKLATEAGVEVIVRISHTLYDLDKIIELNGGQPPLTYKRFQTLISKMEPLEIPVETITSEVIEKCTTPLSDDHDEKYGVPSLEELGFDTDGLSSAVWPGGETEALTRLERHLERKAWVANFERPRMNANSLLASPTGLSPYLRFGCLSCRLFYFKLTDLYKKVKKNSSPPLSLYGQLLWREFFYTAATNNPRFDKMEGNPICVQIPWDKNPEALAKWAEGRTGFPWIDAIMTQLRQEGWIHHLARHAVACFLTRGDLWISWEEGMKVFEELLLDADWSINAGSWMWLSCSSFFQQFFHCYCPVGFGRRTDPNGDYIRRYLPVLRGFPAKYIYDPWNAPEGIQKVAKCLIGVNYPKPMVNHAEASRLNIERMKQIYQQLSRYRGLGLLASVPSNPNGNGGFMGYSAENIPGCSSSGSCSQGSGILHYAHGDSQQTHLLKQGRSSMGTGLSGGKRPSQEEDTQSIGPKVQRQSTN
Nature of the experiment: UV-visible absorption titration of apo-protein into constant FAD, global fit.

Experiment [9] addresses T9, DmCRY (Drosophila melanogaster, UniProt O77059, N419S).
T9 construct: gene cry
The experiment can be described thus: UV-visible absorption of purified protein ([…] nm), FAD occupancy. To be noted: co-purified FAD.

For experiment [10], the target named is T10, DmCRY (Drosophila melanogaster, UniProt O77059, R298E).
T10 construct: gene cry
The description is as above. The settings on record: co-purified FAD.

For experiment [11], the target named is T11, DmCRY (Drosophila melanogaster, UniProt O77059, R237H).
T11 construct: gene cry
The description is as above. The settings on record: co-purified FAD.

Experiment [12] deals with T12, DmCRY (Drosophila melanogaster, UniProt O77059).
T12 construct: gene cry
Nature of the experiment: UV-visible absorption and visible CD of purified protein. The settings on record: co-purified oxidized FAD; near-stoichiometric.

Structures are written as SMILES. Numbering of substitutions follows the chain as printed.

T9 sequence (O77059 1-539 N419S): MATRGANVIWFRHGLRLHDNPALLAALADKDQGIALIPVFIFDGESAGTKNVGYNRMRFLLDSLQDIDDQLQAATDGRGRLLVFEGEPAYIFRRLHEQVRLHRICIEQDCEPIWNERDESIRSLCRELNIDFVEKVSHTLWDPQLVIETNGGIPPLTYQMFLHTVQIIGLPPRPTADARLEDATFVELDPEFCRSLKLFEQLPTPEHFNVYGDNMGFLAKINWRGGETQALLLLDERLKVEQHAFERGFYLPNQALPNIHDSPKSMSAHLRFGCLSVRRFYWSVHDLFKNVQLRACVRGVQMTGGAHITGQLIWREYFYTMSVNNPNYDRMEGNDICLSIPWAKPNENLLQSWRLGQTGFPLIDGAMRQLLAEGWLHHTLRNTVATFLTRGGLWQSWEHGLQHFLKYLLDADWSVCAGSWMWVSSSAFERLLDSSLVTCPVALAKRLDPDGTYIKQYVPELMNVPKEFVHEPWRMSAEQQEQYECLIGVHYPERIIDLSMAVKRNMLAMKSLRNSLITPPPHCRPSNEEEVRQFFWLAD
T12 sequence (O77059 1-539): as the sequence (O77059 1-539 N419S) above, with S419N counted along it
T10 sequence (O77059 1-539 R298E): as the sequence (O77059 1-539 N419S) above, with R298E, S419N counted along it
T1 sequence (O77059 1-539 R237E/R298E): as the sequence (O77059 1-539 N419S) above, with R237E, R298E, S419N counted along it
T4 sequence (O77059 1-539 Q311E): as the sequence (O77059 1-539 N419S) above, with Q311E, S419N counted along it
T6 sequence (O77059 1-539 R237E): as the sequence (O77059 1-539 N419S) above, with R237E, S419N counted along it
T11 sequence (O77059 1-539 R237H): as the sequence (O77059 1-539 N419S) above, with R237H, S419N counted along it
T2 sequence (O77059 1-539 R298E/Q311E): as the sequence (O77059 1-539 N419S) above, with R298E, Q311E, S419N counted along it

As for `Cc1cc2nc3c(=O)[nH]c(=O)nc-3n(C[C@H](O)[C@H](O)[C@H](O)COP(=O)(O)OP(=O)(O)OC[C@H]3O[C@@H](n4cnc5c(N)ncnc54)[C@H](O)[C@@H]3O)c2cc1C` [FAD], the “% reduction of FAD occupancy” value is given as ~ 16% in experiment [1], ~ 58% in [2] and ~ 12% in experiment [6]. The Kd was found to be 97 µM in [3], 68 µM in [5] and 16 µM in experiment [8]. Besides, the FAD occupancy entry in [4], in experiment [9], in [10] and in experiment [11] was “single point mutations only had a minimal impact on FAD occupancy” each time. The “% bound FAD” value in [7] is ~ 30%. In addition, the “UV-visible absorption and visible CD of purified protein” value in [12] was “UV-visible absorption spectrum of DmCRY shows near-stoichiometric binding of oxidized FAD”.

The Kd is a measure of binding affinity in units of concentration. Low values mean higher affinity, high ones lower affinity.
